Results reported in patent publication US8183272B2, “Indanyl compounds” (Daiichi Sankyo Company, Limited, priority 2008, dated 2012).
Counter-ions that a name gives are not always drawn.

Target: T1, human calcium-sensing receptor (CaSR) (Homo sapiens, UniProt P41180)
T1 construct: expressed in transfected cells; host or cells: CHO cells (CHO/hCaSR)
T1 sequence (P41180 20-1078): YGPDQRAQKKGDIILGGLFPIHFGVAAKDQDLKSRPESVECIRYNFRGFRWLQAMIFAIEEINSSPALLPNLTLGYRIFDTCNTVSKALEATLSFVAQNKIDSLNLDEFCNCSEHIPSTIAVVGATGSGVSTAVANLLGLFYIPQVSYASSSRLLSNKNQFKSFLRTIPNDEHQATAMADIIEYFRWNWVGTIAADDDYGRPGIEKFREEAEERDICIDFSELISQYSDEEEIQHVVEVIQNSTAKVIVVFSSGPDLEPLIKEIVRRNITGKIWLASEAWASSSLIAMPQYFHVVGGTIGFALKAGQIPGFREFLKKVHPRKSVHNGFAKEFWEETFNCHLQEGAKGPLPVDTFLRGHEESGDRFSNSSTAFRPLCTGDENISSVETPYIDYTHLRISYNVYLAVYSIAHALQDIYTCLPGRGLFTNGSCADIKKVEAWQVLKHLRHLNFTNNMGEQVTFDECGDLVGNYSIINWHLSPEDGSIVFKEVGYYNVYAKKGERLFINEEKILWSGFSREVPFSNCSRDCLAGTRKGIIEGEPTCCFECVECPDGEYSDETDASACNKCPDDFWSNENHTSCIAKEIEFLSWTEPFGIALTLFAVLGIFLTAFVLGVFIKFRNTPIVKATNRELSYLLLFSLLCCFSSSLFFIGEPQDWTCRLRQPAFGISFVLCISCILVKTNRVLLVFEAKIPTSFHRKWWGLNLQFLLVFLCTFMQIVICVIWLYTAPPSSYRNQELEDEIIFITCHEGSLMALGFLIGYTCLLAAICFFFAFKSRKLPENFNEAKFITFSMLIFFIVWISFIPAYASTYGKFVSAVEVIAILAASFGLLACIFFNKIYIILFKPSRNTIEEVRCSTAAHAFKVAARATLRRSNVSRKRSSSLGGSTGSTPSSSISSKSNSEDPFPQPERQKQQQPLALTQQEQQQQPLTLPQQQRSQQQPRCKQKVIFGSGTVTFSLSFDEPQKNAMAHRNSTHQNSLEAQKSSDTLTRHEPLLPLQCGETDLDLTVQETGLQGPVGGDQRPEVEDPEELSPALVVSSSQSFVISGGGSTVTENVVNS
Assay: Inhibitory activity on calcium-sensing receptor (CaSR) using intracellular calcium increase as an indicator (FLIPR, CHO/hCaSR)
Type: cell-based
Details: CHO/hCaSR cells; intracellular Ca increase induced by CaCl2; test compound 1.05 to 10,000 nM
Experimental: Evaluation of inhibitory activity on calcium-sensing receptor (CaSR) using intracellular calcium increase as an indicator
The preparation which is prepared by adding CHO/hCaSR to F12 medium (manufactured by Invitrogen) containing 10% fetal bovine serum to have 2×10^5 cells/mL was applied to a 384-well in an amount of 50 μL/well, and then incubated overnight in a CO2 incubator. The culture supernatant was completely removed, the assay buffer (20 mM HEPES, HBSS (Ca and Mg free) containing 2.5 mM probenecid, pH 7.4) containing Calcium 3 (manufactured by Molecular Devices), i.e., a fluorescent intracellular calcium indicator, was added thereto in an amount of 25 μL/well, and the mixture was maintained for 1 hour in a CO2 incubator. Meanwhile, Calcium 3 was prepared according to the protocol enclosed in FLIPR Calcium 3 Assay Kit (manufactured by Molecular Devices). After maintaining it for 1 hour, a solution in which the test compound is prepared to have 2.1 to 20,000 nM (final concentration of 1.05 to 10,000 nM) by an assay buffer was added thereto in an amount of 25 μL/well, and maintained for 15 minutes in a CO2 incubator. Then, the CaCl2 solution prepared to have […] by using the assay buffer was added in an amount of 25 μL/well, and the resulting intracellular Ca increase (i.e., fluorescence intensity) was measured over time using a fluorescence imaging plate reader (FLIPR, manufactured by Molecular Devices). From the data obtained, the difference between the fluorescence intensity before the addition of CaCl2 solution and the maximum fluorescence intensity after the addition of CaCl2 solution was calculated, and the 50% inhibition concentration (IC50) of the test compound was obtained.

Compound	IC50 [µM]
Cc1cccc([C@@H](C)OC[C@H](O)CNC(C)(C)CC2Cc3ccccc3C2)c1CCCCC(=O)O [Example 47]	≤ 2.28
C[C@@H](OC[C@H](O)CNC(C)(C)CC1Cc2ccccc2C1)c1cccc(F)c1CCC(=O)O [Example 7, 3-{2-[(1R)-1-{[(2R)-3-{[1-(2,3-Dihydro-1H-inden-2-yl)-2-methylpropan-2-yl]amino}-2-hydroxypropyl]oxy}ethyl]-6-fluorophenyl}propanoic acid]	≤ 2.4
Cc1cc(CCC(=O)O)c([C@@H](C)OC[C@H](O)CNC(C)(C)CC2Cc3ccccc3C2)cc1F [Example 22]	≤ 2.33
Cc1ccc([C@@H](C)OC[C@H](O)CNC(C)(C)CC2Cc3ccccc3C2)c(CCCCC(=O)O)c1 [Example 43]	≤ 2.28
Cc1ccc([C@@H](C)OC[C@H](O)CNC(C)(C)CC2Cc3ccccc3C2)c(CCC(=O)O)c1 [Example 5, 3-{2-[(1R)-1-{[(2R)-3-{[1-(2,3-Dihydro-1H-inden-2-yl)-2-methylpropan-2-yl]amino}-2-hydroxypropyl]oxy}ethyl]-5-methylphenyl}propanoic acid]	≤ 2.42
Cc1cccc([C@@H](C)OC[C@H](O)CNC(C)(C)CC2Cc3ccccc3C2)c1CCC(=O)O [Example 42]	≤ 2.42
C[C@@H](OC[C@H](O)CNC(C)(C)CC1Cc2ccccc2C1)c1ccccc1CC(C)(C)C(=O)O [Example 82, 3-{2-[(1R)-1-{[(2R)-3-{[1-(2,3-Dihydro-1H-inden-2-yl)-2-methylpropan-2-yl]amino}-2-hydroxypropyl]oxy}ethyl]phenyl}-2,2-dimethylpropanoic acid]	≤ 2.35
CCOc1cccc([C@@H](C)OC[C@H](O)CNC(C)(C)CC2Cc3ccccc3C2)c1CCC(=O)O [Example 62]	≤ 2.27
CC[C@@H](OC[C@H](O)CNC(C)(C)CC1Cc2ccccc2C1)c1ccccc1CCC(=O)O [Example 18]	≤ 2.42
C[C@@H](OC[C@H](O)CNC(C)(C)CC1Cc2ccccc2C1)c1ccc(Cl)cc1CCC(=O)O [Example 69]	≤ 2.32
Cc1ccc(CCC(=O)O)c([C@@H](C)OC[C@H](O)CNC(C)(C)CC2Cc3ccccc3C2)c1 [Example 6, 3-{2-[(1R)-1-{[(2R)-3-{[1-(2,3-Dihydro-1H-inden-2-yl)-2-methylpropan-2-yl]amino}-2-hydroxypropyl]oxy}ethyl]-4-methylphenyl}propanoic acid]	≤ 2.42
C[C@@H](OC[C@H](O)CNC(C)(C)CC1Cc2ccccc2C1)c1cc(F)ccc1CCC(=O)O [Example 9, 3-{2-[(1R)-1-{[(2R)-3-{[1-(2,3-Dihydro-1H-inden-2-yl)-2-methylpropan-2-yl]amino}-2-hydroxypropyl]oxy}ethyl]-4-fluorophenyl}propanoic acid]	≤ 2.4
COc1cccc([C@@H](C)OC[C@H](O)CNC(C)(C)CC2Cc3ccccc3C2)c1CCC(=O)O [Example 17]	≤ 2.34
C[C@@H](OC[C@H](O)CNC(C)(C)CC1Cc2ccccc2C1)c1ccccc1CCCCC(=O)O [Example 13, 5-{2-[(1R)-1-{[(2R)-3-{[1-(2,3-Dihydro-1H-inden-2-yl)-2-methylpropan-2-yl]amino}-2-hydroxypropyl]oxy}ethyl]phenyl}pentanoic acid]	≤ 2.35
C[C@@H](OC[C@H](O)CNC(C)(C)CC1Cc2ccccc2C1)c1cccc(Cl)c1CCC(=O)O [Example 71]	≤ 2.32
C[C@@H](OC[C@H](O)CNC(C)(C)CC1Cc2ccccc2C1)c1ccccc1CCCC(=O)O [Example 2, 4-{2-[(1R)-1-{[(2R)-3-{[1-(2,3-Dihydro-1H-inden-2-yl)-2-methylpropan-2-yl]amino}-2-hydroxypropyl]oxy}ethyl]phenyl}butanoic acid]	≤ 2.42
Cc1ccc(CCCCC(=O)O)c([C@@H](C)OC[C@H](O)CNC(C)(C)CC2Cc3ccccc3C2)c1 [Example 46]	≤ 2.28
CCC[C@@H](OC[C@H](O)CNC(C)(C)CC1Cc2ccccc2C1)c1cccc(C)c1CCC(=O)O [Example 52]	≤ 2.28

Results, then the compound that gave them:

IC50 [µM]	Compound
≤ 2.15	CCOc1cccc([C@@H](C)OC[C@H](O)CNC(C)(C)CC2Cc3ccccc3C2)c1CCCCC(=O)O [Example 63]
≤ 2.27	CCOc1ccc(CCC(=O)O)c([C@@H](C)OC[C@H](O)CNC(C)(C)CC2Cc3ccccc3C2)c1 [Example 56]
≤ 2.25	CC[C@@H](OC[C@H](O)CNC(C)(C)CC1Cc2ccccc2C1)c1cc(F)c(F)cc1CCC(=O)O [Example 79]
≤ 2.27	C[C@@H](OC[C@H](O)CNC(C)(C)CC1Cc2ccccc2C1)c1cc(F)ccc1CCCCC(=O)O [Example 45]
≤ 2.21	COc1cccc([C@@H](C)OC[C@H](O)CNC(C)(C)CC2Cc3ccccc3C2)c1CCCCC(=O)O [Example 37]
≤ 2.21	CC(C)Oc1cccc([C@@H](C)OC[C@H](O)CNC(C)(C)CC2Cc3ccccc3C2)c1CCC(=O)O [Example 64]
≤ 2.27	CC[C@@H](OC[C@H](O)CNC(C)(C)CC1Cc2ccccc2C1)c1cccc(OC)c1CCC(=O)O [Example 41]
≤ 2.16	C[C@@H](OC[C@H](O)CNC(C)(C)CC1Cc2ccccc2C1)c1ccccc1CCc1nn[nH]n1 [Example 81, (2R)-1-{[2-(2,3-Dihydro-1H-inden-2-yl)-1,1-dimethylethyl]amino}-3-[(1R)-1-{2-[2-(2H-tetrazol-5-yl)ethyl]phenyl}ethoxy]propan-2-ol formate]
≤ 2.24	C[C@@H](OC[C@H](O)CNC(C)(C)CC1Cc2ccccc2C1)c1cc(F)c(Cl)cc1CCC(=O)O [Example 34]
≤ 2.25	CC[C@@H](OC[C@H](O)CNC(C)(C)CC1Cc2ccccc2C1)c1ccc(Cl)cc1CCC(=O)O [Example 74]
≤ 2.26	COc1cc(F)cc([C@@H](C)OC[C@H](O)CNC(C)(C)CC2Cc3ccccc3C2)c1CCC(=O)O [Example 35]
≤ 2.27	C[C@@H](OC[C@H](O)CNC(C)(C)CC1Cc2ccccc2C1)c1ccccc1CCCOCC(=O)O [Example 85, (3-{2-[(1R)-1-{[(2R)-3-{[1-(2,3-Dihydro-1H-inden-2-yl)-2-methylpropan-2-yl]amino}-2-hydroxypropyl]oxy}ethyl]phenyl}propoxy)acetic acid]
≤ 2.09	CC(C)Oc1cccc([C@@H](C)OC[C@H](O)CNC(C)(C)CC2Cc3ccccc3C2)c1CCCCC(=O)O [Example 65]
≤ 2.25	CC[C@@H](OC[C@H](O)CNC(C)(C)CC1Cc2ccccc2C1)c1cc(Cl)ccc1CCC(=O)O [Example 73]
≤ 2.17	C[C@@H](OC[C@H](O)CNC(C)(C)CC1Cc2ccccc2C1)c1cc(C(F)(F)F)ccc1CCC(=O)O [Example 49]
≤ 2.19	C[C@@H](OC[C@H](O)CNC(C)(C)CC1Cc2ccccc2C1)c1ccc(Cl)cc1CCCCC(=O)O [Example 72]
≤ 2.25	CC[C@@H](OC[C@H](O)CNC(C)(C)CC1Cc2ccccc2C1)c1cc(F)cc(F)c1CCC(=O)O [Example 80]
≤ 2.19	CCC[C@@H](OC[C@H](O)CNC(C)(C)CC1Cc2ccccc2C1)c1cc(Cl)ccc1CCC(=O)O [Example 76]
≤ 2.19	Cc1cc(-c2ccccc2[C@@H](C)OC[C@H](O)CNC(C)(C)CC2Cc3ccccc3C2)ccc1C(=O)O [Example 3, 2′-[(1R)-1-{[(2R)-3-{[1-(2,3-Dihydro-1H-inden-2-yl)-2-methylpropan-2-yl]amino}-2-hydroxypropyl]oxy}ethyl]-3-methylbiphenyl-4-carboxylic acid]
